For one test, the target named is T1, Tpa1p (Saccharomyces cerevisiae, UniProt P40032).
T1 construct: His6 (N); made in house; host or cells: E. coli BL21(DE3)
In words: MALDI-TOF MS Tpa1p hydroxylation assay. Type of test: biochemical. The method, then: MALDI-TOF MS OFD1/TPA1p hydroxylation assays13
For enzyme production, the reported procedures were used.13 E. coli BL21(DE3) cells transformed with pNIC28-His6-Ofd1 or pNIC28-His6-Tpa1pΔ2-20 were cultured to an OD600 of 0.6; recombinant protein production was induced through the addition of isopropyl β-D-1-thiogalactopyranoside (IPTG) to a concentration of 0.5 mM. The induced cultures were […]
incubated overnight at 18°C with shaking, then harvested. The induced cells were suspended in 500 mM NaCl, 40 mM imidazole, 50 mM HEPES pH 7.5, sonicated, and the His-tagged protein was purified by nickel affinity chromatography.13 Both Ofd1 and Tpa1p were buffer-exchanged into 500 mM NaCl, 5% glycerol, 1 mM DTT, 50 mM HEPES pH 7.5 following […]
consisted of Ofd1 (1 µM) or Tpa1p (2 µM) with 2OG (20 µM), L-ascorbic acid (100 µM), (NH4)2Fe(SO4)2 (50 µM), RPS23 peptide (amino acid sequence
-CONH2; 25 µM) and the […]
relevant inhibitor (initially prepared in 10% DMSO, diluted to 1% DMSO in the reaction mixture) all in 50 mM HEPES pH 7.5. Reactions were quenched after 2 min (Ofd1) or 4 min (Tpa1p) by the addition of formic acid to a final concentration of 1%. The extent of hydroxylation was monitored by MALDI-TOF MS, and the IC50 curve was fit to the data using […]
LC-MS PHD2 hydroxylation assays
The PHD2 RF-MS RapidFire liquid chromatography mass spectrometry (RF-MS) assay monitors turnover of a C-terminal oxygenase dependent domain (CODD) peptide substrate […]
-CONH2 and appearance of the hydroxylated peptide product
(Pro564) in an endpoint type assay format (typical enzyme incubation time of 15 minutes).
Tris(hydroxymethyl)aminomethane was from Fisher. Ferrous ammonium sulfate (FAS), 2-oxoglutarate (2OG) and L-ascorbic acid were from Sigma Aldrich; solutions of these were prepared freshly each day. All inhibition assays were carried out in 384-well polypropylene plates (Greiner Bio-One). PHD2 assays were performed in assay buffer (50 mM Tris.Cl pH […]
were prepared using an ECHO 550 acoustic dispenser (Labcyte) and dry dispensed into 384-well polypropylene assay plates. The final assay concentration of DMSO was kept constant at 0.5%. PHD2 protein was prepared at a concentration of 300 nM in assay buffer and 25 μl dispensed across each 384-well assay plate. […] Peptide charge states were monitored in positive mode. Ion chromatogram data were extracted for the +2 charge state and peak area data integrated using RapidFire Integrator software (Agilent). % conversion of the CODD peptide substrate to the +16 hydroxylated peptide was calculated using the equation: % conversion = 100 x hydroxylated / (hydroxylated + non-hydroxylated peptide). IC50 values were determined from non-linear regression plots using GraphPad prism. […]

A further test addresses JARID1C (KDM5C) (Homo sapiens, UniProt P41229). Description: AlphaScreen histone demethylase assay. Type of test: biochemical. In general terms: In Alpha technology, singlet oxygen from a donor bead excites a nearby acceptor bead.
Test [1] deals with hypoxia response element (HRE) firefly luciferase reporter in HT1080 cells. Description: HRE luciferase reporter assay. The following applies: for EC50: Homo sapiens. It is filed as cell-based. The method, then:
HT1080 cells were stably transfected with a construct containing a firefly luciferase gene under the control of 5 tandem copies of the sequence: […] (which contains the hypoxia response element (HRE) 3′ to the mouse erythropoietin gene) linked to a ‘minimal’ SV40 promoter.
HT1080P8 cells (25 000–30 000) were seeded into 96-well plates (100 μL per well) overnight to enable cell adhesion. […] The medium was removed and cells washed with PBS. Luciferase signal was measured using Luciferase Assay System kit from Promega (E1500) following the manufacturer's protocol with a FLUOstar Omega Microplate Reader (BMG Labtech).
For orientation: A reporter such as luciferase makes a cellular process visible.

Test [2] has as its target PHD2 catalytic domain (residues 181-426) (Homo sapiens, UniProt Q9GZT9). In words: NMR competition assays (2OG, CODD, NODD displacement). Type of test: binding. On the set-up: The catalytic domain of human PHD2 (residues 181-426) was used in all; made in house. The note with it: for 2OG displacement: inhibitor at 400 μM, PHD2 at 10 μM, 1H CPMG. The method, then: 2OG displacement experiments were monitored by CPMG-edited 1H NMR using a Bruker […]
supplemented with 60 µM Zn(II) and increasing concentrations of the inhibitors from a […]
(90°x−[τ−180°y−τ−90°y−τ−180°y−τ]n−acq), was applied. Typical experimental parameters were […]
suppression was achieved by presaturation.
For 13C-CODD and […] displacement experiments, 1D Clean In-Phase (CLIP) HSQC with selective 13C-inversion displacement experiments were conducted using a Bruker AV700 instrument. 3 mm MATCH NMR tubes were used (Cortecnet). All experiments were […]
prolyl-ring. 7 The CLIP-HSQC sequence was used for 1D HSQC experiments (without 13C decoupling).8 Relaxation delay was 2s. The 1JCH was set to 160 Hz. A 6.8 ms Q3.1000 180 degree pulse was used and selective irradiation was applied at the selected chemical shift. […]

The mark [3] stands for this setting: HT-1080, 16 h, read-out: EC50 HRE luciferase reporter.
[4] abbreviates: 1D-selective HSQC with selective 13C inversion.
Setting [5] is: isolated recombinant enzyme, 2 µM, read-out: IC50 Tpa1p.

Five compounds from publication PMC5802278, “Molecular and cellular mechanisms of HIF prolyl hydroxylase inhibitors in clinical trials” (Chemical Science, 2017) can be followed below.

For orientation: IC50 means the concentration needed to halve the response being measured. In general, EC50 refers to the midpoint of the concentration-response curve.

Like-named read-outs stand apart in the source and are kept apart here.

Sequence of JARID1C (KDM5C) (P41229 whole entry): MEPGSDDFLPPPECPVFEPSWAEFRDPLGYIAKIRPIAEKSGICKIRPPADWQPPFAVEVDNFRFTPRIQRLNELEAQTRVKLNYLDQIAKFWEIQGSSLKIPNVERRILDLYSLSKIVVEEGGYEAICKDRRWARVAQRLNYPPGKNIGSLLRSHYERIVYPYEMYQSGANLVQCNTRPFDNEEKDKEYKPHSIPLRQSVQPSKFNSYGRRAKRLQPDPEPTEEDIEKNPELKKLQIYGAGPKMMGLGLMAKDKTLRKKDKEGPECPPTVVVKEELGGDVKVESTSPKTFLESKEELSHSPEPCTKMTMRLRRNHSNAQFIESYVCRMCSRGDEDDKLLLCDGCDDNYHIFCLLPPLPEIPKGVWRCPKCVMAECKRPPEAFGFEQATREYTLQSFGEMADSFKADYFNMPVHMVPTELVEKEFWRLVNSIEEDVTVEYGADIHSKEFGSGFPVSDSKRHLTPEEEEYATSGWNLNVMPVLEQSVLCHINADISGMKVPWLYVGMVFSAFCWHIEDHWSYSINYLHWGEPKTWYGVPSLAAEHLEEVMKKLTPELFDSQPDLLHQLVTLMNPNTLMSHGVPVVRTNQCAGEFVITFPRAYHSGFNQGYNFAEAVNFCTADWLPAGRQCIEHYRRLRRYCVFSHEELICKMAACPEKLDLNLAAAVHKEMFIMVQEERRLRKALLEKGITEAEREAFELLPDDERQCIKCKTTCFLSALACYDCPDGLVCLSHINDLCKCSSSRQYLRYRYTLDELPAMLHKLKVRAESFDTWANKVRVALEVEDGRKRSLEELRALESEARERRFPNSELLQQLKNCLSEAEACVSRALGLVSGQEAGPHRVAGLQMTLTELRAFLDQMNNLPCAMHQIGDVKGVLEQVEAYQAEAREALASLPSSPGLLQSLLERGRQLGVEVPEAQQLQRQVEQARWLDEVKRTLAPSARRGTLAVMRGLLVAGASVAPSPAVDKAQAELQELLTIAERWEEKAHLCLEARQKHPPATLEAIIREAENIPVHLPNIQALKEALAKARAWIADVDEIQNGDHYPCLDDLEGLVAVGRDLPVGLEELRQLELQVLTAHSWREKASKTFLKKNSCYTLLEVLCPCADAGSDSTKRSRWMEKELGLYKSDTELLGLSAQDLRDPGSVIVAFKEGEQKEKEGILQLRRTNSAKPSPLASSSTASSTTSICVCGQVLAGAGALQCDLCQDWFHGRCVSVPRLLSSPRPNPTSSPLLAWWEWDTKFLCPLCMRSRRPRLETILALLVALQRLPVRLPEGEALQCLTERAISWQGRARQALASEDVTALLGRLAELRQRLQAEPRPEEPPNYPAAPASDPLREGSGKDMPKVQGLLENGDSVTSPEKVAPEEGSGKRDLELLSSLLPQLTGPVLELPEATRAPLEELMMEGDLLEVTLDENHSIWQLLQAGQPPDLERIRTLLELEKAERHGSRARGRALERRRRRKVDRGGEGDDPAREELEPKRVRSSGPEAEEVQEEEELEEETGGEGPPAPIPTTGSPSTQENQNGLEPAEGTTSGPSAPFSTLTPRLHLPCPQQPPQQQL
Sequence of PHD2 catalytic domain (residues 181-426) (Q9GZT9 181-426): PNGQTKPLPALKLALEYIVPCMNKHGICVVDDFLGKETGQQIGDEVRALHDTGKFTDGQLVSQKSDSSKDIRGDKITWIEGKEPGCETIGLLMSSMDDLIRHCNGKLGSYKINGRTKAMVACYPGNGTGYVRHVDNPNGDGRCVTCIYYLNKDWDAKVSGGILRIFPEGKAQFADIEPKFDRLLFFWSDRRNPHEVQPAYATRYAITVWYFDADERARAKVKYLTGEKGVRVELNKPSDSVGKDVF
T1 sequence (P40032 with tags, fused parts or gaps): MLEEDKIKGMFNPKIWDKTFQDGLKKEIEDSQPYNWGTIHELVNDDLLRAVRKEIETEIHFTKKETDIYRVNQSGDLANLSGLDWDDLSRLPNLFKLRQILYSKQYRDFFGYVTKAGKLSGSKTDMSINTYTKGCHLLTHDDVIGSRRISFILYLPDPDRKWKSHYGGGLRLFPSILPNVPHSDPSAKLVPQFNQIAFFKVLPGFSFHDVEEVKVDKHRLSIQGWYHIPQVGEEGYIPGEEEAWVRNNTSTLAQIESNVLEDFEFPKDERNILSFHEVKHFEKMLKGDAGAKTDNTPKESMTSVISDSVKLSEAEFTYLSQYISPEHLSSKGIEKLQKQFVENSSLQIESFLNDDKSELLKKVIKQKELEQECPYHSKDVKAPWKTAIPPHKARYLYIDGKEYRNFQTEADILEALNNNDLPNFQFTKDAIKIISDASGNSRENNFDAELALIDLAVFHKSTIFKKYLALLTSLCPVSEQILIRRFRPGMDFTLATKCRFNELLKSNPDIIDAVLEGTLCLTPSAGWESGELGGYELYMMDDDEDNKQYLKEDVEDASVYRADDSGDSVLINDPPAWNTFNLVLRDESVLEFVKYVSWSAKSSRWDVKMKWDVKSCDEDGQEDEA

For `CC(C)(C)OC(=O)c1ccc(-n2[nH]cc(-n3ccnn3)c2=O)nc1` [IOX4], the IC50 turned out to be 2.3 µM against Tpa1p and 97 µM on JARID1C (KDM5C) (read-out: IC50 JARID1C (KDM5C)). In addition, the “concentrations at which the luciferase signals were reduced” value in test [1] (HT1080 cells, 16 hours) is more than 33 µM. In addition, the EC50 in test [1] (setting [3]) is 0.8 µM. In test [2] (setting [4]), the 13C-NODD displacement result is “clearly displaced NODD”. Further, the 2OG displacement entry in test [2] is given as “completely displaced 2OG”.

`O=C(O)CNC(=O)c1ncc(-c2cccc(Cl)c2)cc1O` [Vadadustat]: the IC50 at JARID1C (KDM5C) (read-out: IC50 JARID1C (KDM5C)) was more than 100 µM. For the same compound, the EC50 in test [1] (HT-1080, 6 h, read-out: EC50 HRE luciferase reporter) came out at 15.7 µM; in test [1] (setting [3]) it was 41 µM; in test [1] (HT-1080, 24 h, read-out: EC50 HRE luciferase reporter), 37 µM. Further, the 13C-NODD displacement entry in test [2] (setting [4]) is on record as “clearly displaced NODD”. Also, in test [2], the 2OG displacement result is recorded as “completely displaced 2OG”.

On Tpa1p, `O=C(O)CNC(=O)C1C(=O)N(C2CCCCC2)C(=O)N(C2CCCCC2)C1=O` [GSK1278863] showed an IC50 of 5.1 µM. The same compound showed an IC50 at JARID1C (KDM5C) of more than 100 µM. Also, in test [1] (HT1080 cells, 16 hours), the “Emax in HRE luciferase reporter assay” value is “lowest observed Emax” and the “concentrations at which the luciferase signals were reduced” value was more than 33 µM. For the same compound, the EC50 in test [1] (setting [3]) is 0.8 µM.

`Cc1nc(C(=O)NCC(=O)O)c(O)c2ccc(Oc3ccccc3)cc12` [FG-4592]: the figures for the IC50 on Tpa1p (setting [5]) and on JARID1C (KDM5C) (read-out: IC50 JARID1C (KDM5C)) were 12.8 µM and more than 100 µM, respectively. In addition, the EC50 in test [1] (HT-1080, 6 h, read-out: EC50 HRE luciferase reporter, HT1080 cells, 6 hours treatment) was determined as 3 µM; in test [1] (HT-1080, 16 h, read-out: EC50 HRE luciferase reporter, HT1080 cells, 16 hours treatment), 7 µM; in test [1] (HT-1080, 24 h, read-out: EC50 HRE luciferase reporter, HT1080 cells, 24 hours treatment), 7 µM. The 13C-CODD displacement result in test [2] (setting [4]) is “efficiently displaced CODD”. For the same compound, in test [2] (setting [4]), the 13C-NODD displacement result was “clearly displaced NODD”. For the same compound, the 2OG displacement entry in test [2] was “completely displaced 2OG”.

As for `O=c1c(-n2ccnn2)c[nH]n1-c1cc(N2CCOCC2)ncn1` [Molidustat], the IC50 on Tpa1p (setting [5]) was 3.8 µM; on JARID1C (KDM5C) (read-out: IC50 JARID1C (KDM5C)), more than 100 µM. The “concentrations at which the luciferase signals were reduced” value in test [1] (HT1080 cells, 16 hours) is more than 33 µM. Besides, in test [1] (HT-1080, HT1080 cells, 16 hours treatment, read-out: EC50 HRE luciferase reporter), the EC50 was 2.1 µM. Moreover, the 13C-NODD displacement result in test [2] (setting [4]) is recorded as “barely detectable”. Besides, the 2OG displacement result in test [2] was “completely displaced 2OG”.
